# Data as given in publication PMC13288968 (ACS chemical neuroscience, 2026).
# Several values for one entry are separate records, joined by “and”; a condition that tells them apart may be missing. Equal values may be shown once.
# T1: ΔFOSB bound to genomic DNA in hippocampus of APP mice (Mus musculus, UniProt P13346)
# T1 sequence (P13346 1-237 isoform P13346-2): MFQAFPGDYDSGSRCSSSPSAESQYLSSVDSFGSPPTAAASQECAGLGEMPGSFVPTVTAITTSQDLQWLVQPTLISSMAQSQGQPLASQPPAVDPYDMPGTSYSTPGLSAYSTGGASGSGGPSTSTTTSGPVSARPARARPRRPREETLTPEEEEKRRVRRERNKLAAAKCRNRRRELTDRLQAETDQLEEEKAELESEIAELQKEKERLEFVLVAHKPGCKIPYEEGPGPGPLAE
# T2: ΔFOSB/JUND bZIP redox switch (ΔFOSB Cys172/JUND Cys285) (Mus musculus, UniProt P13346)
# T2 sequence (P13346 153-219 isoform P13346-2): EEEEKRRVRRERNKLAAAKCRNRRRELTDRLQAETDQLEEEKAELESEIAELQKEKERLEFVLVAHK
# T2 sequence (P15066 260-326 partner limits assumed): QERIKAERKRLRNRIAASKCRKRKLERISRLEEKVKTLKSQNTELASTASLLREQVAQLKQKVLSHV
# T3: ΔFOSB homomer (full-length) (mouse, UniProt P13346-2 2-237)
# T3 sequence: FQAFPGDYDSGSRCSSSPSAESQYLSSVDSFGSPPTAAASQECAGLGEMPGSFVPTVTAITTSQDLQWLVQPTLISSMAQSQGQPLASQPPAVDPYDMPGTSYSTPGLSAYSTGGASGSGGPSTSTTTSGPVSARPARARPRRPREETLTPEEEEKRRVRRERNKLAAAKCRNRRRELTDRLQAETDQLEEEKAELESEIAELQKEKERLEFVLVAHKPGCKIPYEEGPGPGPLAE
# T4: ΔFOSB (full-length);JUND (full-length) (mouse;mouse, UniProt P13346-2;P15066 2-237;2-341, |)
# T4 sequence 1: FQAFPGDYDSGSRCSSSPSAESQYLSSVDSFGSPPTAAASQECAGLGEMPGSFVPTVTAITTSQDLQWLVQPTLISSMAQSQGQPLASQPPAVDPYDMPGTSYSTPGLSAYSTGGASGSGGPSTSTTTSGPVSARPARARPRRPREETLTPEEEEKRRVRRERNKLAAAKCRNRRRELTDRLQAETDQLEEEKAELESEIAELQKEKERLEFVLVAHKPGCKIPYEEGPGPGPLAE
# T4 sequence 2: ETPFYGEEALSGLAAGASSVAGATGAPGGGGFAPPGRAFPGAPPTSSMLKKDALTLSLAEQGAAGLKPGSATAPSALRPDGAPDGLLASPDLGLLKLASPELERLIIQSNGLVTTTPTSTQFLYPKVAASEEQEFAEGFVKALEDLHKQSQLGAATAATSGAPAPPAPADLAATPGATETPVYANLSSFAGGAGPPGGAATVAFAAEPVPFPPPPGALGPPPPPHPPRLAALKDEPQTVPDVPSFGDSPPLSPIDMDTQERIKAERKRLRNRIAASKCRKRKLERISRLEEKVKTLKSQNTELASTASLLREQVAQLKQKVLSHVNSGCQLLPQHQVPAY
# B1: TMR-cdk5 (cdk5 oligo) (dsDNA)
# DNA 1: CGTCGGTGACTCAAAACAC
# DNA 2: GTGTTTTGAGTCACCGACG
# What was measured:
# [1] = biological target: T1, ΔFOSB bound to genomic DNA in hippocampus of APP mice; details: three days into the dorsal hippocampus of APP mice; cited from earlier work
# [2] = biological target: T2, ΔFOSB/JUND bZIP redox switch (ΔFOSB Cys172/JUND Cys285); test: Redox switch closure of ΔFOSB/JUND bZIP assessed by non-reducing SDS-PAGE; format: biochemical
# [3] = biological target: T3, ΔFOSB homomer (full-length); test: fluorescence polarization
# [4] = biological target: T4, ΔFOSB (full-length);JUND (full-length); test: fluorescence polarization
Molecule,reduction in number of ΔFOSB-bound AP-1 sites (CUT&RUN) [1],"effect on closure of the redox switch under oxidation ([2]; 500 μM compound, 100 μM diamide, non-reducing SDS-PAGE)","promotion of oxidation / redox switch closure by compound alone ([2]; 0.5 mM compound, no diamide, SDS-PAGE)",binding result [3],binding result [4]
NC1=NN(c2ccc(Oc3ccccc3)c(S(=O)(=O)O)c2)C(=O)C1 [JPC0661],60% and ~ 60%,"None of the three compounds (YL0441, JPC0661, and QB0365) prevented closure of the redox switch",did not oxidize the protein to induce closure of the redox switch,–,–
B1,–,–,–,binds,binds
